Measured values from ChEMBL document CHEMBL1201862, “PubChem BioAssay data set” (2004).
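Step 1: Grow cells in 96-well plates. Step 2: Expose to compound for 48 hours at 5 concentrations. Step 3: Interpolate endpoints linearly; if unreached, use highest concentration. Here, GI50 denotes the concentration required for 50% inhibition of growth.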 Activity calls are given as the source filed them. Rule as the data show it: active = GI50 up to about 1.1 µM and inactive = higher.

Columns and labels:
Experiment in all cases: inhibition of tumour cell growth, NCI panel, 48 h
[1] = test system: ACHN
[2] = test system: BT-549
[3] = test system: CCRF-CEM
[4] = test system: HCT-116
[5] = test system: HL-60
[6] = test system: HOP-92
[7] = test system: Hs-578T
[8] = test system: MCF7
[9] = test system: Malme-3M
[10] = test system: NCI-H460
[11] = test system: OVCAR-4
[12] = test system: RPMI-8226
[13] = test system: SK-MEL-2
[14] = test system: SK-MEL-5
[15] = test system: SN12C
[16] = test system: T47D
[17] = test system: TK-10
[18] = test system: U-251
[19] = test system: UACC-257
[20] = test system: UO-31

Structure (SMILES)	GI50 [1]	GI50 [2]	GI50 [3]	GI50 [4]	GI50 [5]	GI50 [6]	GI50 [7]	GI50 [8]	GI50 [9]	GI50 [10]	GI50 [11]	GI50 [12]	GI50 [13]	GI50 [14]	GI50 [15]	GI50 [16]	GI50 [17]	GI50 [18]	GI50 [19]	GI50 [20]
COC(=O)C1=NN2c3ccccc3C(=O)OCCC2C1 (stereo unspecified)	> 100 µM (inactive)	> 100 µM (inactive)	> 100 µM (inactive)	> 100 µM (inactive)	> 100 µM (inactive)	46.5 µM (inactive)	> 100 µM (inactive)	> 100 µM (inactive)	> 100 µM (inactive)	> 100 µM (inactive)	> 100 µM (inactive)	> 100 µM (inactive)	> 100 µM (inactive)	> 100 µM (inactive)	> 100 µM (inactive)	> 100 µM (inactive)	> 100 µM (inactive)	> 100 µM (inactive)	> 100 µM (inactive)	> 100 µM (inactive)
O=C1NC(Nc2ccccc2Cl)=N/C1=C\c1c(Cl)cccc1Cl	50.5 µM (inactive)	34.1 µM (inactive)	34.4 µM (inactive)	22.5 µM (inactive)	18.6 µM (inactive)	19.9 µM (inactive)	28.8 µM (inactive)	28.7 µM (inactive)	31.1 µM (inactive)	24.9 µM (inactive)	11.6 µM (inactive)	20.6 µM (inactive)	28.8 µM (inactive)	20.3 µM (inactive)	28.2 µM (inactive)	28.6 µM (inactive)	30.9 µM (inactive)	8.43 µM (inactive)	25.4 µM (inactive)	20.7 µM (inactive)
NC(=S)NC/C=C/Cl	> 100 µM (inactive)	> 100 µM (inactive)	> 100 µM (inactive)	> 100 µM (inactive)	> 100 µM (inactive)	> 100 µM (inactive)	> 100 µM (inactive)	> 100 µM (inactive)	> 100 µM (inactive)	> 100 µM (inactive)	> 100 µM (inactive)	> 100 µM (inactive)	> 100 µM (inactive)	> 100 µM (inactive)	–	> 100 µM (inactive)	> 100 µM (inactive)	–	> 100 µM (inactive)	> 100 µM (inactive)
COc1ccc2nc3cc(Cl)ccc3c(Nc3ccc(O)c(CN4CCN(C)CC4)c3)c2c1	1.64 µM (inactive)	20.3 µM (inactive)	0.276 µM (active)	1.75 µM (inactive)	1.95 µM (inactive)	1.72 µM (inactive)	1.89 µM (inactive)	1.64 µM (inactive)	1.79 µM (inactive)	1.72 µM (inactive)	1.65 µM (inactive)	1.9 µM (inactive)	1.81 µM (inactive)	1.73 µM (inactive)	1.85 µM (inactive)	2.09 µM (inactive)	1.97 µM (inactive)	1.67 µM (inactive)	1.86 µM (inactive)	1.9 µM (inactive)
CC(C)Cn1cnnc1NS(=O)(=O)c1cc(C(=O)NN)c(Cl)cc1S	> 10 µM (inactive)	> 10 µM (inactive)	> 10 µM (inactive)	> 10 µM (inactive)	> 10 µM (inactive)	> 10 µM (inactive)	> 10 µM (inactive)	> 10 µM (inactive)	> 10 µM (inactive)	> 10 µM (inactive)	> 10 µM (inactive)	> 10 µM (inactive)	> 10 µM (inactive)	> 10 µM (inactive)	> 10 µM (inactive)	> 10 µM (inactive)	> 10 µM (inactive)	> 10 µM (inactive)	> 10 µM (inactive)	–
COc1ccc(C2CC(C)(O)Oc3cc4c(cc32)OCO4)cc1 (stereo unspecified)	43.2 µM (inactive)	17.3 µM (inactive)	19.3 µM (inactive)	30.6 µM (inactive)	17.6 µM (inactive)	28.4 µM (inactive)	26.6 µM (inactive)	34.9 µM (inactive)	47.2 µM (inactive)	31.4 µM (inactive)	38.6 µM (inactive)	27.4 µM (inactive)	15.8 µM (inactive)	25.4 µM (inactive)	45.8 µM (inactive)	2.02 µM (inactive)	36.1 µM (inactive)	31.4 µM (inactive)	32.4 µM (inactive)	37.1 µM (inactive)
Cc1nnc(SCc2nc(C#N)c(C#N)nc2CSc2nnc(C)s2)s1	8.53 µM (inactive)	16.2 µM (inactive)	1.98 µM (inactive)	4.55 µM (inactive)	1.79 µM (inactive)	12.9 µM (inactive)	17.1 µM (inactive)	12.3 µM (inactive)	5.75 µM (inactive)	24.2 µM (inactive)	15.2 µM (inactive)	2.93 µM (inactive)	25.2 µM (inactive)	15 µM (inactive)	17.3 µM (inactive)	5.73 µM (inactive)	6.82 µM (inactive)	18.7 µM (inactive)	13.8 µM (inactive)	8.49 µM (inactive)
COc1cc(S(=O)(=O)Nc2ccc(-c3csc(/N=C\C=C\c4ccccc4)n3)cc2)ccc1Cl	41.2 µM (inactive)	39.1 µM (inactive)	17.5 µM (inactive)	46.8 µM (inactive)	43.3 µM (inactive)	22.8 µM (inactive)	87.3 µM (inactive)	36.1 µM (inactive)	37.4 µM (inactive)	0.0484 µM (active)	28.5 µM (inactive)	27.3 µM (inactive)	26 µM (inactive)	38.3 µM (inactive)	> 100 µM (inactive)	26.6 µM (inactive)	42.2 µM (inactive)	–	7.76 µM (inactive)	44.5 µM (inactive)
O=C(OCc1ccccc1)C1(N2CN(C3(C(=O)OCc4ccccc4)CCCC3)CN(C3(C(=O)OCc4ccccc4)CCCC3)C2)CCCC1	> 10 µM (inactive)	> 10 µM (inactive)	> 10 µM (inactive)	> 10 µM (inactive)	> 10 µM (inactive)	> 10 µM (inactive)	> 10 µM (inactive)	> 10 µM (inactive)	> 10 µM (inactive)	> 10 µM (inactive)	> 10 µM (inactive)	> 10 µM (inactive)	> 10 µM (inactive)	> 10 µM (inactive)	> 10 µM (inactive)	> 10 µM (inactive)	> 10 µM (inactive)	> 10 µM (inactive)	> 10 µM (inactive)	> 10 µM (inactive)
N#CC1C(=S)NC(c2ccccc2)=CC12CCCCC2 (stereo unspecified)	25.1 µM (inactive)	15.8 µM (inactive)	25.5 µM (inactive)	24.5 µM (inactive)	22.2 µM (inactive)	18.6 µM (inactive)	53.7 µM (inactive)	21.9 µM (inactive)	22.2 µM (inactive)	94.8 µM (inactive)	26.4 µM (inactive)	23.3 µM (inactive)	24 µM (inactive)	25.1 µM (inactive)	35 µM (inactive)	10.8 µM (inactive)	23 µM (inactive)	31.1 µM (inactive)	64.7 µM (inactive)	25 µM (inactive)
CCOc1cc2c(cc1O)C=C[C@@H]1[C@@H]2CC[C@]2(C)[C@@H](O)CC[C@@H]12	11.6 µM (inactive)	13.9 µM (inactive)	3.15 µM (inactive)	1.11 µM (active)	0.579 µM (active)	29.9 µM (inactive)	4.19 µM (inactive)	3.61 µM (inactive)	1.5 µM (inactive)	2.05 µM (inactive)	24.9 µM (inactive)	2.52 µM (inactive)	4.38 µM (inactive)	1.97 µM (inactive)	4.52 µM (inactive)	6.01 µM (inactive)	14.4 µM (inactive)	3.43 µM (inactive)	12.5 µM (inactive)	6.08 µM (inactive)
c1ccc(/N=C2/SC(c3ccccc3)(c3ccccc3)c3ccccc32)cc1	> 100 µM (inactive)	> 100 µM (inactive)	> 100 µM (inactive)	64.3 µM (inactive)	> 100 µM (inactive)	> 100 µM (inactive)	> 100 µM (inactive)	87.7 µM (inactive)	> 100 µM (inactive)	> 100 µM (inactive)	> 100 µM (inactive)	> 100 µM (inactive)	> 100 µM (inactive)	57.8 µM (inactive)	> 100 µM (inactive)	> 100 µM (inactive)	> 100 µM (inactive)	10.4 µM (inactive)	> 100 µM (inactive)	> 100 µM (inactive)
N=C(N)SCc1ccc2c(c1)Sc1ccccc1O2	4.47 µM (inactive)	3.62 µM (inactive)	6.78 µM (inactive)	5.86 µM (inactive)	4.57 µM (inactive)	6.31 µM (inactive)	4.56 µM (inactive)	4.53 µM (inactive)	11.1 µM (inactive)	6.79 µM (inactive)	6.87 µM (inactive)	8.05 µM (inactive)	5.12 µM (inactive)	1.57 µM (inactive)	8.95 µM (inactive)	8.07 µM (inactive)	5.11 µM (inactive)	18.4 µM (inactive)	5.82 µM (inactive)	3.37 µM (inactive)
NC(C(=O)O)c1cc(O)no1 (stereo unspecified)	> 100 µM (inactive)	> 42.5 µM (inactive)	> 100 µM (inactive)	> 100 µM (inactive)	> 60 µM (inactive)	> 100 µM (inactive)	> 100 µM (inactive)	> 100 µM (inactive)	> 100 µM (inactive)	> 100 µM (inactive)	> 100 µM (inactive)	> 100 µM (inactive)	> 100 µM (inactive)	> 100 µM (inactive)	> 100 µM (inactive)	> 100 µM (inactive)	> 100 µM (inactive)	> 100 µM (inactive)	> 100 µM (inactive)	> 100 µM (inactive)
